Source: article PMC7470163, “Effects of ticagrelor on the pharmacokinetics of rivaroxaban in rats” (Pharmaceutical Biology, 2020)
Like-named read-outs stand apart in the source and are kept apart here.

Legend:
[1] = parameters: method as in Eriksson et al. [2009]; Altena et al. [2014]; details: with CYP3A4 inducer rifampicin; ref Eriksson et al. [2009]; Altena et al. [2014]; cited from earlier work
[2] = In vivo pharmacokinetic experiment: oral rivaroxaban in rats with or without ticagrelor pre-treatment (plasma, UPLC-MS/MS); parameters: species or system Sprague-Dawley rats; details: for AUC(0-t) / AUC(0-inf) / Cmax / half-life / MRT inf / MRT last: po; for MRT inf: read-out: MRT (0–∞); for MRT last: read-out: MRT(0–t); for CLint scaled: read-out: CL (text: intrinsic clearance) (converted)
Description: Chromatographic separation was performed using the Acquity UPLC system (Waters Corp., Milford, MA, USA) and ACQUITY UPLC HSS T3 column (2.1 × 100 mm, 1.8 μm) at 40 °C. The mobile phase comprising acetonitrile (A) and 0.1% formic acid water (B) was set with a flow rate of 0.40 mL/min. The gradient programme was applied as follows: 0–0.5 min, 30% A; 0.5–1 min, 30–95% A; 1–2 min, 95% A; […], 95% A; 2.5–2.6 min, 95–30% A; 2.6–3 min, 30% A. The total time required for analysis was 3 min. The sample manager underwent a strong wash (methanol water, 50/50, V/V) and a weak wash (methanol water, 10/90, V/V) after each injection.
XEVO TQD triple quadrupole mass spectrometer was equipped with electrospray ionization (ESI), and multiple-reaction monitoring (MRM) mode was selected for quantization. The precursor ion and product ion were m/z 435.93→144.81 for rivaroxaban and m/z 285.1→193.1 for diazepam (internal standard, IS), respectively. The optimal MS parameters were defined as follows: the cone voltages were set at 35 V and 50 V for rivaroxaban and IS; the collision energies were set at 30 V and 25 V for rivaroxaban and IS. Masslynx 4.1 software (Waters Corp., Milford, MA, USA) was used for data acquisition, and the UPLC-MS/MS chromatogram of blank plasma that was spiked with rivaroxaban and IS was shown below (Figure 2).
Ten specific pathogen-free (SPF) grade Sprague–Dawley rats (male, 220 ± 20 g) were provided by Wenzhou Medical University Laboratory Animal Research Centre. All experimental procedures and protocols were reviewed and approved by the Animal Care and Use Committee of Wenzhou Medical University and were in accordance with the Guide for the Care and Use of Laboratory Animals (ID Number: wydw2019-650). Ten rats were randomly divided into two groups: the ticagrelor group (n = 5) and the control group (n = 5). Rats were bred at 25 °C with 60 ± 5% humidity and a 12 h dark/light cycle. Enough tap water and normal chow were provided ad libitum. The rats were placed under the above conditions for one week before initiating the experiment.
The ticagrelor group was pre-treated with ticagrelor by oral gavage at a dose of 10 mg/kg/day (dissolved in CMC-Na solution) for two weeks before the administration of rivaroxaban. The control group also received equal amounts of the vehicle (CMC-Na solution). Rivaroxaban was dissolved in dimethyl sulfoxide (DMSO) and was then diluted with polyethylene glycol 200 so that DMSO accounted for 5% of the total volume. Each group of rats was given an oral gavage of rivaroxaban at a dose of 10 mg/kg, and then blood was collected via the rat’s tail vein for analysis at 0.083, 0.25, 0.5, 1, 2, 3, 4, 6, 8, 12 and 24 h. Samples were collected into 1.5 mL centrifuge tubes and were immediately centrifuged at 4000 rpm for 10 min.
Every 100 µL of rat plasma was added with 200 µL of acetonitrile in 0.5 μg/mL of IS, followed by vortex mixing for 1 min. After centrifugation at 13000 rpm for 15 min, 5 µL of supernatant was prepared for UPLC-MS/MS system to analyse.
The GraphPad (version 8.0; GraphPad Software Inc., San Diego, CA, USA) was applied to calculate IC50 and plot plasma concentration-time curves. The pharmacokinetic parameters using non-compartmental analysis were calculated by DAS (version 3.2.8; Wenzhou Medical University, China). Statistical comparisons within groups were conducted by SPSS (version 25.0; SPSS Inc., Chicago, IL, USA), using Student’s t-test. Values of p < 0.05 were considered statistically significant.

[3] = parameters: method as in Mega et al. [2012]; details: low-dose rivaroxaban (2.5 mg or 5 mg twice daily) co-administered with DAPT; ref Mega et al. [2012]; cited from earlier work
[4] = parameters: method as in Abrams and Emerson [2009]; details: phase I trials; ref Abrams and Emerson [2009]; cited from earlier work
CYP3A4 = test system: CYP3A4; parameters: method as in Kvasnicka et al. [2017]; details: ref Kvasnicka et al. [2017]; cited from earlier work
[5] = parameters: method as in Mueck et al. [2013]; details: co-administration of ketoconazole; ref Mueck et al. [2013]; cited from earlier work
[6] = male, Sprague-Dawley, rat, plasma, 10 mg/kg, rivaroxaban 10 mg/kg oral, rats pre-treated with ticagrelor 10 mg/kg/day for 14 days
[7] = male, Sprague-Dawley, rat, plasma, 10 mg/kg, rivaroxaban 10 mg/kg oral, rats, control group (no ticagrelor)
[8] = male, Sprague-Dawley, rat, plasma, 10 mg/kg, rivaroxaban 10 mg/kg oral, rats, without ticagrelor pre-treatment
[9] = male, Sprague-Dawley, rat, plasma, rivaroxaban 10 mg/kg oral, rats, control group (no ticagrelor)
[10] = rats, oral ticagrelor 10 mg/kg/day for 14 days vs control
[11] = rivaroxaban 10 mg/kg oral, rats pre-treated with ticagrelor 10 mg/kg/day for 14 days

O=C(NC[C@H]1CN(c2ccc(N3CCOCC3=O)cc2)C(=O)O1)c1ccc(Cl)s1 [Rivaroxaban]
reduction in the systemic exposure of rivaroxaban [1]: 50%
AUC(0-t) ([2]; male, Sprague-Dawley, rat, plasma, 10 mg/kg, rivaroxaban 10 mg/kg oral single dose, rats pre-treated with ticagrelor 10 mg/kg/day oral for 14 days, n=5, mean ± SD): 3480 ± 754 ng·h/mL
AUC(0-t) ([2]; male, Sprague-Dawley, rat, plasma, 10 mg/kg, rivaroxaban 10 mg/kg oral single dose, rats, control group (vehicle, no ticagrelor), n=5, mean ± SD): 1060 ± 291 ng·h/mL
AUC(0-inf) [2, 6]: 3580 ± 736 ng·h/mL
Cmax [2, 6]: 691 ± 238 ng/mL
half-life [2, 6]: 5.12 ± 1.65 h
MRT inf [2, 6]: 5.97 ± 1.11 h
MRT last [2, 6]: 5.18 ± 0.91 h
AUC(0-inf) [2, 7]: 1070 ± 299 ng·h/mL
Cmax [2, 7]: 221 ± 53.3 ng/mL
half-life [2, 7]: 2.64 ± 0.72 h
MRT inf [2, 7]: 4.41 ± 0.79 h
MRT last [2, 7]: 4.32 ± 0.66 h
AUC(0-t) ([2]; male, Sprague-Dawley, rat, plasma, 10 mg/kg, rivaroxaban 10 mg/kg oral, rats with ticagrelor pre-treatment 10 mg/kg/day for 14 days): 3480 ± 754 ng·h/mL
AUC(0-inf) [2, 8]: 1070 ± 299 ng·h/mL
AUC(0-t) [2, 8]: 1060 ± 291 ng·h/mL
AUC(0-inf) ([2]; male, Sprague-Dawley, rat, plasma, rivaroxaban 10 mg/kg oral, rats with ticagrelor pre-treatment 10 mg/kg/day for 14 days): 3580 ± 736 ng·h/mL
CLint scaled ([2]; male, Sprague-Dawley, rat, plasma, rivaroxaban 10 mg/kg oral, rats pre-treated with ticagrelor 10 mg/kg/day for 14 days): 48.2 mL/min/kg
Tmax [2, 9]: 2 ± 0.71 h
CLint scaled [2, 9]: 166 mL/min/kg
increase of AUC value of rivaroxaban [2, 10]: 3.3 fold
increase of Cmax value of rivaroxaban [2, 10]: 3.1 fold
T max [2, 11]: 2.00 ± 0.71 h
Vz [2, 11]: 21.89 ± 9.00 L/kg
Vz ([2]; rivaroxaban 10 mg/kg oral, rats, control group (no ticagrelor)): 36.23 ± 5.48 L/kg
risk of intracranial hemorrhage [3]: 0.6%
risk of major bleeding [3]: 2.1%
time to peak plasma concentration (Tmax) [4]: 1.5 to 4 h
share of total rivaroxaban elimination involving CYP3A4 (CYP3A4): about 18%
increase in Cmax value of rivaroxaban [5]: 1.7 fold
increase in the mean AUC value of rivaroxaban [5]: 2.6 fold
